Source: PubChem BioAssay (NCI)
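Interpolation was linear, between the two tested concentrations surrounding the appropriate level; five concentrations were tested over 48 hours in 96-well plates. TGI marks complete inhibition of growth.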

Key:
Test in all cases: NCI tumour cell line growth inhibition, 48 h
MALME-3M melanoma = tested on: MALME-3M melanoma
SN12C renal = tested on: SN12C renal
BT-549 breast = tested on: BT-549 breast
OVCAR-3 ovarian = tested on: OVCAR-3 ovarian
SW-620 colon = tested on: SW-620 colon
HCT-116 colon = tested on: HCT-116 colon
UACC-257 melanoma = tested on: UACC-257 melanoma
HS 578T breast = tested on: HS 578T breast
MOLT-4 leukemia = tested on: MOLT-4 leukemia
HOP-62 NSCLC = tested on: HOP-62 NSCLC
MDA-MB-231 breast = tested on: MDA-MB-231 breast
CCRF-CEM leukemia = tested on: CCRF-CEM leukemia
DU-145 prostate = tested on: DU-145 prostate
SF-268 CNS = tested on: SF-268 CNS
K-562 leukemia = tested on: K-562 leukemia
NCI-H522 lung = tested on: NCI-H522 lung
SR leukemia = tested on: SR leukemia
MDA-MB-435 = tested on: MDA-MB-435
PC-3 prostate = tested on: PC-3 prostate
HT29 colon = tested on: HT29 colon
SF-295 CNS = tested on: SF-295 CNS
SK-MEL-28 melanoma = tested on: SK-MEL-28 melanoma
SF-539 CNS = tested on: SF-539 CNS
SK-MEL-5 melanoma = tested on: SK-MEL-5 melanoma
A549 NSCLC = tested on: A549 NSCLC
NCI/ADR-RES ovarian = tested on: NCI/ADR-RES ovarian
IGROV1 ovarian = tested on: IGROV1 ovarian
SK-MEL-2 melanoma = tested on: SK-MEL-2 melanoma
NCI-H226 lung = tested on: NCI-H226 lung
NCI-H23 lung = tested on: NCI-H23 lung
U251 CNS = tested on: U251 CNS
HCC-2998 colon = tested on: HCC-2998 colon
CAKI-1 renal = tested on: CAKI-1 renal
UACC-62 melanoma = tested on: UACC-62 melanoma
LOX IMVI melanoma = tested on: LOX IMVI melanoma
TK-10 renal = tested on: TK-10 renal
SNB-75 CNS = tested on: SNB-75 CNS
MCF7 breast = tested on: MCF7 breast
KM12 colon = tested on: KM12 colon
ACHN renal = tested on: ACHN renal
T-47D breast = tested on: T-47D breast
HL-60(TB) leukemia = tested on: HL-60(TB) leukemia
EKVX NSCLC = tested on: EKVX NSCLC
NCI-H460 lung = tested on: NCI-H460 lung
M14 melanoma = tested on: M14 melanoma
OVCAR-4 ovarian = tested on: OVCAR-4 ovarian
SNB-19 CNS = tested on: SNB-19 CNS
OVCAR-8 ovarian = tested on: OVCAR-8 ovarian
SK-OV-3 ovarian = tested on: SK-OV-3 ovarian
OVCAR-5 ovarian = tested on: OVCAR-5 ovarian
HOP-92 NSCLC = tested on: HOP-92 NSCLC
RPMI-8226 leukemia = tested on: RPMI-8226 leukemia
A498 renal = tested on: A498 renal
MDA-N = tested on: MDA-N
HCT-15 colon = tested on: HCT-15 colon
786-0 renal = tested on: 786-0 renal
COLO 205 colon = tested on: COLO 205 colon
UO-31 renal = tested on: UO-31 renal
RXF 393 renal = tested on: RXF 393 renal

With `COc1ccc(C2OC(=O)c3ccc4ccccc4c32)c(C)c1` (centres undefined) the TGI (MALME-3M melanoma) was > 100 µM, the TGI (SN12C renal) was > 100 µM and the TGI (BT-549 breast) was > 100 µM. For the same compound, the TGI (OVCAR-3 ovarian) was 53.1 µM, the TGI (SW-620 colon) was > 72.9 µM and the TGI (HCT-116 colon) was > 45.7 µM. For the same compound, the TGI (UACC-257 melanoma) was > 100 µM, the TGI (HS 578T breast) was 45.2 µM and the TGI (MOLT-4 leukemia) was > 39.8 µM. For the same compound, the TGI (HOP-62 NSCLC) was > 90.2 µM, the TGI (MDA-MB-231 breast) was > 100 µM and the TGI (CCRF-CEM leukemia) was > 100 µM. For the same compound, the TGI (DU-145 prostate) was > 100 µM, the TGI (SF-268 CNS) was > 100 µM and the TGI (K-562 leukemia) was > 75.7 µM. The TGI (NCI-H522 lung) was 20.9 µM, the TGI (SR leukemia) was > 89.7 µM and the TGI (MDA-MB-435) was 6.02 µM. For the same compound, the TGI (PC-3 prostate) was > 100 µM, the TGI (HT29 colon) was 15.1 µM and the TGI (SF-295 CNS) was 14.7 µM. For the same compound, the TGI (SK-MEL-28 melanoma) was > 71.3 µM, the TGI (SF-539 CNS) was 40.5 µM and the TGI (SK-MEL-5 melanoma) was 17.6 µM. For the same compound, the TGI (A549 NSCLC) was > 100 µM, the TGI (NCI/ADR-RES ovarian) was 5.61 µM and the TGI (IGROV1 ovarian) was > 67.8 µM. The TGI (SK-MEL-2 melanoma) was 18.4 µM, the TGI (NCI-H226 lung) was 56.9 µM and the TGI (NCI-H23 lung) was 41.8 µM. The TGI (U251 CNS) was 30.6 µM, the TGI (HCC-2998 colon) was 12.3 µM and the TGI (CAKI-1 renal) was > 100 µM. For the same compound, the TGI (UACC-62 melanoma) was > 100 µM, the TGI (LOX IMVI melanoma) was > 100 µM and the TGI (TK-10 renal) was > 95.3 µM. The TGI (SNB-75 CNS) was 44.7 µM, the TGI (MCF7 breast) was 29.9 µM and the TGI (KM12 colon) was > 45.6 µM. The TGI (ACHN renal) was > 100 µM, the TGI (T-47D breast) was > 86 µM and the TGI (HL-60(TB) leukemia) was > 24.6 µM. The TGI (EKVX NSCLC) was > 87.8 µM, the TGI (NCI-H460 lung) was > 54.3 µM and the TGI (M14 melanoma) was > 38 µM. For the same compound, the TGI (OVCAR-4 ovarian) was > 100 µM, the TGI (SNB-19 CNS) was > 100 µM and the TGI (OVCAR-8 ovarian) was 56.5 µM. For the same compound, the TGI (SK-OV-3 ovarian) was 60.1 µM, the TGI (OVCAR-5 ovarian) was > 100 µM and the TGI (HOP-92 NSCLC) was > 89.8 µM. The TGI (RPMI-8226 leukemia) was > 65.4 µM, the TGI (A498 renal) was 66.2 µM and the TGI (MDA-N) was 4.28 µM. The TGI (HCT-15 colon) was > 60.5 µM, the TGI (786-0 renal) was 54 µM and the TGI (COLO 205 colon) was > 35.1 µM. The TGI (UO-31 renal) was > 83.8 µM and the TGI (RXF 393 renal) was > 65.9 µM.
